Data reported in patent publication US7205383B2, “Peptide ligands of leukocyte integrins” (Karyon-CTT Ltd., priority 2001, dated 2007).
Bridge positions count the residues as written; N and C are the ends. Peptide text beside a SMILES is read from it.

How the values were obtained:
[1] = tested on: THP-1 cells on type IV collagen; assay: THP-1 cell adhesion on type IV collagen; type: cell-based; settings: phorbol ester-activated THP-1; read-out: IC50, inhibition of THP-1 adhesion on type IV collagen
Procedure: (§1) In FIG. 5(B), TRP-1 cells were allowed to bind to microtiter wells coated with von Willebrand factor, type IV collagen, or fibronectin. The C(1–8;3–9) peptide was included as a competitor in the concentrations described. The bound cells were determined by the phosphatase assay. The data are the mean ±SD of triplicate wells and were similar in four other experiments.
(§2) Fibrinogen, fibronectin, von Wrlnebrand factor, type IV collagen, GST fusion proteins, Fc fusion proteins or synthetic peptides were coated on microtiter wells at a concentration of 2 μg in 50 μl TBS unless otherwise indicated. A recombinant von Willebrand factor and a capturing antibody to it kindly provided by Drs. J. J. Sixma and Ph. G. de Groot (University Medical Center Utrecht, the Netherlands) were also used. To prepare polymerized peptides, glutaraldehyde was added at a final concentration of 0.25%. The wells were saturated with 5% BSA and then washed five times with PBS. Prior to adhesion assays, cells were treated with 50 nM 40-Phorbol 12,13-dibutyrate or with 200 μM P1 peptide (Kotovuori et al., 1999) in serum-free medium for 30 min at room temperature to activate the integrins. […] The bound cells were determined by an assay measuring cellular phosphatase activity. […] The absorbance at 405 nm was read on a microplate reader. […]

[2] = Water solubility of the peptides; type: physicochemical; settings: compared with the C(1–9;3–8) peptide
[3] = tested on: αLβ2 integrin-mediated binding of Jurkat cells to ICAM-1-Fc; assay: Jurkat cell adhesion to ICAM-1-Fc; type: cell-based
Procedure: In FIG. 4(A), Jurkat cells were allowed to attach to immobilized ICAM-1-Fc in microtiter wells in the absence or presence of LLG-C4 peptides. Following a 45 min incubation, the unbound cells were removed by immersing the microtiter plate upside down on a decanter containing PBS, and the attached cells were stained with Crystal Violet.
as §2

[4] = tested on: THP-1 cells (β2 integrins); settings: soluble peptide
Procedure: In FIG. 2(A), phorbol ester-activated THP-1 cells were allowed to bind for 60 min to microtiter wells coated with LLG-C4-GST, GST, or albumin. EDTA was included at a 2.5 mM concentration. The bound cells were determined by the assay measuring cellular phosphatase activity. The data are the means ±SD from triplicate wells.
In FIG. 2(B), THP-1 cells were mixed with each antibody against the β1, β2, β3, αL, αM, or αX integrin subunit as indicated at a concentration of […]. An aliquot of cells was then transferred to wells coated with LLG-C4-GST and incubated for 60 min at 37° C. Following washing the bound cells were determined by the phosphatase assay. The results are the mean % adhesion ±SD of 2–4 independent experiments each done in triplicate wells.
In FIG. 3(A), TBP-1 cells were mixed in suspension with the peptide containing either the C(1–8;3–9) or C(1–9;3–8) disulfide. The final concentrations of the peptides are indicated. Cells were then incubated for 60 min at 37° C. in microtiter wells coated with LLG-C4-GST. After washing the wells, the bound cells were quantitated by the phosphatase assay. The results are the mean ±SD from triplicate wells.
In FIG. 3(B), THP-1 cell binding to LLG-C4-GST was examined in the presence of the C(1–8;3–9), CLLGC (SEQ ID NO: 4) or the CAAGC (SEQ ID NO: 5) peptide. The synthetic peptides were used at the concentrations indicated. Following a 60 min incubation the wells were washed and the bound cells were determined by the phosphatase assay.
Fibrinogen, fibronectin, von Wrlnebrand factor, type IV collagen, GST fusion proteins, Fc fusion proteins or synthetic peptides were coated on microtiter wells at a concentration of 2 μg in 50 μl TBS unless otherwise indicated. A recombinant von Willebrand factor and a capturing antibody to it kindly provided by Drs. J. J. Sixma and Ph. G. de Groot (University Medical Center Utrecht, the Netherlands) were also used. To prepare polymerized peptides, glutaraldehyde was added at a final concentration of 0.25%. The wells were saturated with 5% BSA and then washed five times with PBS. Prior to adhesion assays, cells were treated with 50 nM 40-Phorbol 12,13-dibutyrate or with 200 μM P1 peptide (Kotovuori et al., 1999) in serum-free medium for 30 min at room temperature to activate the integrins. Alternatively, cells were stimulated for 60 min at 37° C. with the phorbol ester (50 nM) and the C(1–8;3–9) and RGD-4C peptides each at a 2.5 μM concentration, after which the peptides were removed by washing with PBS/2.5 mM EDTA. Cells were incubated in the microtiter wells (100 000 cells per well) for 60 min at 37° C. in the absence or presence of competing peptides, antibodies or EDTA. Unbound cells were removed by gently washing with PBS and pressing the plate against paper towels. The bound cells were determined by an assay measuring cellular phosphatase activity. Briefly, 100 μl of 50 mM sodium acetate buffer, pH 5.0, containing 1% Triton X-100 and 6 mg/ml p-nitrophenyl phosphate was added per well and incubated for 1 h at 37° C. The reaction was stopped with 50 μl of 1 M NaOH. The absorbance at 405 nm was read on a microplate reader. Alternatively, the attached cells were stained with Crystal Violet essentially as described (Mould et al., 1995).

[5] = tested on: THP-1 cells on von Willebrand factor; type: cell-based; settings: phorbol ester-activated THP-1; read-out: IC50, inhibition of THP-1 cell binding to von Willebrand factor
Procedure: In FIG. 5(A), THP-1 cell binding to von Wirebrand factor was examined in the presence of antibodies against the β2 (7E4), αvβ3 (LM609) or αIIbβ3 (P2) integrins. Following a 60 min incubation in von Willebrand factor-coated wells, the bound cells were determined. The data are the mean ±SD of triplicate wells. The experiment was repeated three times.
as §1
as §2, with “integrins. Alternatively, cells were stimulated for 60 min at 37° C. with the phorbol ester (50 nM) and the C(1–8;3–9) and RGD-4C peptides each at a 2.5 μM concentration, after which the peptides were removed by washing with PBS/2.5 mM EDTA. Cells were incubated in the microtiter wells (100 000 cells per well) for 60 min at 37° C. in the absence or presence of competing peptides, antibodies or EDTA.” for “integrins.”

[6] = tested on: T cells binding to Eahy926 endothelial cells (ICAM-1); assay: T cell binding to TNF-α-stimulated endothelial cell monolayer; type: cell-based; settings: peptide 50 μM, 45 min
Procedure: In FIG. 4(B), T cells were allowed to bind to TNF-α-stimulated Eahy endothelial cell monolayers that were grown on microtiter wells. LLG-C4 or RGD-4C was included at a concentration of 50 μM. After a 45 min incubation, the unbound cells were removed by immersing the microtiter plate in a PBS solution, and the bound T cells were determined by the phosphatase assay. The data are the mean ±SD of triplicate wells.
To study T cell binding to an endothelial cell monolayer, Eahy926 endothelial cells were plated on microtiter plates at a density of 5×10^4 cells per well and grown for three days. To stimulate the production of ICAM-1, the cells were further grown for 16 h in the presence of TNF-α at a concentration of 10 ng/ml. T cells (1.5×10^5 per well) were allowed to bind to Eahy926 cells first for 30 min at 4° C., then 15 min at 37° C. The unbound T cells were removed by immersing the microtiter plate up side down in PBS. The bound cells were determined by the phosphatase assay.

[7] = tested on: THP-1 cells on fibrinogen; assay: THP-1 cell adhesion to fibrinogen; type: cell-based
Procedure: Following a 60 min incubation the bound cells were determined by the phosphatase assay. The results are the mean ±SD of triplicate wells and were similar in two other experiments.
In FIG. 6(B), to activate integrins, THP-1 cells were stimulated both with phorbol ester (50 nM) and the RGD-4C and C(1–8;3–9) peptides (each 2.5 μM for 1 h. After washing the cells were allowed to bind to fibrinogen-coated wells in the presence of C(1–8;3–9) or RGD-4C or both peptides at the concentrations indicated. After a 30-min incubation the bound cells were determined. The results are the mean ±SD of triplicate wells and were similar in two other experiments. At some data points the SD values are too small to be seen.
as §2, with “0.25%.” for “0.25%. The wells were saturated with 5% BSA and then washed five times with PBS. Prior to adhesion assays, cells were treated with 50 nM 40-Phorbol 12,13-dibutyrate or with 200 μM P1 peptide (Kotovuori et al., 1999) in serum-free medium for 30 min at room temperature to activate the integrins.”

[8] = tested on: THP-1 cells; assay: Transwell cell migration assay, fibrinogen-coated filters; type: cell-based; settings: peptide 200 μM, 10% serum, 18 h
Procedure: In FIG. 6(C), Transwell filters were coated both on the upper and lower surface with fibrinogen, or left uncoated, and then saturated with BSA. TBP-1 cells (5×10^4 per filter) were plated on the upper surface of the filter in 10% serum-containing medium. The concentrations of C(1–8;3–9) and C(1–9;3–8) were 200 μM. Following a 18 hour-culture, the cells migrated underneath the filter were determined. The cells were fixed, stained, and then counted under a microscope.
The in vitro migration of THP-1 cells was studied in closely physiological conditions containing 10% serum to not interfere with adhesive properties of cells. Both the upper and lower surfaces of 8 μm pore size Transwell filters were coated with fibrinogen, LLG-C4-GST, or GST at a concentration of 40 μg/ml overnight at 4° C. Free binding sites were blocked by incubation with 5% BSA/TBS. THP-1 cells (5×10^4 in 100 μl) were plated on the upper compartment in 10% FCS-containing medium. The C(1–8;3–9) or C(1–9;3–8) peptide were included at a concentration of 200 μM. The lower compartment was filled with 750 μl of 10% FCS-containing medium. Following a culture for 18 h at 37° C. the filters were immersed in methanol for 15 min, in water for 10 s, and in 0.1% toluidine blue for 5 min. […] Cells were removed from the upper surface of the filter with a cotton swap, and cells migrated on the lower surface were counted microscopically. […]

[9] = tested on: THP-1 cells; assay: THP-1 cell adhesion on wells coated with synthetic peptides; type: cell-based
Procedure: In FIG. 2(C), the C(1–8;3–9) and C(1–9;3–8) peptides were coated on microtiter wells by incubating overnight at a concentration of 40 μg/ml in TBS in the absence or presence of glutaraldehyde. Free binding sites on plastic were then blocked with 5% BSA. THP-1 cells ([…]) were allowed to bind for 60 min at 37° C. […] The experiment was repeated twice.
as §2

CC(C)C[C@@H]1NC(=O)[C@H](CC(C)C)NC(=O)[C@H](Cc2ccccc2)NC(=O)[C@@H]2CSSC[C@@H](C(=O)O)NC(=O)[C@H](CSSC[C@H](N)C(=O)N3CCC[C@H]3C(=O)N2)NC(=O)CNC1=O [C(1–8;3–9), CPCFLLGCC] (H-CPCFLLGCC-OH; disulfide 1-8, 3-9; N-terminus and C-terminus assumed)
IC50 [1]: ~200 µM
water solubility [2]: poorer water solubility
IC50 ([3]; ICAM-1-Fc directly coated or captured via protein A, read-out: IC50, inhibition of Jurkat cell adhesion to ICAM-1-Fc): ~80 µM
IC50 ([4]; read-out: IC50, inhibition of THP-1 cell adhesion on LLG-C4-GST, 60 min at 37° C.): 20 µM
IC50 [5]: ~20 µM

ACDCRGDCFCG [RGD-4C, RGD-containing peptide, ligand of several β1 and β3 integrins, reference compound]
effect on T cell binding to TNF-α-stimulated endothelial cells [6]: no effect
inhibition of THP-1 adhesion on fibrinogen after peptide pre-stimulation ([7]; cells pre-stimulated with phorbol ester (50 nM) and RGD-4C and C(1–8;3–9) each 2.5 μM, 30-min incubation): more effectively than C(1–8;3–9)

CPCFLLGCC [C(1–9;3–8), LLG-C4 conformer with disulfide bridges C1–C9 and C3–C8]
inhibition of THP-1 cell migration through fibrinogen-coated filter [8]: inhibited only partially
THP-1 cell binding to coated peptide crosslinked with glutaraldehyde ([9]; peptide coated at 40 μg/ml in presence of glutaraldehyde): gave no cell binding
THP-1 cell binding to coated peptide ([9]; peptide coated at 40 μg/ml, without glutaraldehyde): failed to bind
inhibition of Jurkat cell adhesion to ICAM-1-Fc ([3]; compared with C(1–8;3–9)): several fold less active and had hardly any effect
fold less active than C(1–8;3–9), THP-1 adhesion on LLG-C4-GST [4]: 20 fold
inhibition of THP-1 adhesion to fibrinogen ([7]; phorbol ester-stimulated THP-1, 60 min): no effect
